Reference: publication doi:10.1101/2025.04.10.648262, “Time-resolved phenotyping at subcellular resolution reveals shared principles and key trade-offs across antimicrobial peptide activities” (bioRxiv, 2026)
Where two headings read alike, the source gives them in different places. Bridge positions count the residues as written; N and C are the ends. Square brackets hold non-standard residues; d marks the D form. Peptide text beside a SMILES is read from it. Nspe = C[C@H](NCC(=O)O)c1ccccc1; Nlys = NCCCCNCC(=O)O

Columns and labels:
[1] = tested on: CJW7753 cells in wide trenches; assay: Wide-trench microfluidics, growth inhibition of dense populations; assay type: cell-based, Escherichia coli; details: 2X MIC in feeding channel, 37°C, M9gluCAAT with 0.08% Pluronic
From the text: The design of the wide-trench microfluidics was adapted from the one reported by ([Lambert & Kussell, 2014]). As reported before ([Lin & Jacobs-Wagner, 2022]), the master mold was manufactured in the clean room of the School of Engineering and Applied Science at Yale University. UV photolithography (EVG 620 Mask Aligner) was applied on Si wafers with SU-8 photoresist to generate two layers of positive patterns. The lower layer contained the bacterial culture chambers (wide trenches) while the upper layer contained the large trench for the flowing culture medium. The large feeding region features a ~200 μm width and ~30 μm height. The wide trenches have a width of 7 μm, a depth of ~34–38 μm, and a height of 1.29 μm.
A solution of 9:1 polydimethylsiloxane (PDMS) and curing agent was mixed, degassed to remove air bubbles, poured onto the silicon wafer, and cured at 64.5°C for > 3 h. Note that the 9:1 PDMS:curing agent ratio was used instead of the standard 10:1 to reduce the hydrophobicity of the PDMS and mitigate hydrophobic interactions with AMPs. Once hardened, PDMS chips were cut out from the wafer, and a 1.2 mm biopsy punch was used to create inlet and outlet holes. The current chip design features two independent channels per chip. To allow for a higher temperature during PDMS-glass bonding, the glass bottom part of the dish was used during the following steps (without the plastic support glued to it). […]
To analyse wide-trench time-lapse images, drift correction was first performed using OmniSegger, followed by a custom Python script (drift_correction_wide_trenches.py) to correct for the slow residual drift that remained after the first correction step. The resulting drift-corrected timelapse data were analysed with the OmniSegger pipeline using the ribosome-fluorescence wide-trench Omnipose model described above, allowing cell segmentation and cell linking to be performed in the same general manner as for the PDMS-microwell experiments. […]

E. coli (MG1655) = assay type: cell-based, Escherichia coli
Experimental: For all experiments and E. coli strains, cells were grown in a medium (M9gluCAAT) with M9 salts (33.7 mM Na2HPO4, 22mM KH2PO4, 8.55 mM NaCl, 9.35 mM NH4Cl), 0.2% (w/v) glucose, 0.4% (w/v) casamino acids, 1 mM MgSO4, 0.3 mM CaCl2, 1 μg/mL thiamine, and trace elements (13.4 mM ethylene-diamine-tetra-acetic-acid (EDTA), 3.1 mM FeCl3-6H2O, 0.62 mM ZnCl2, 76 μM CuCl2-2H2O, 42 μM CoCl2-2H2O, 162 μM H3BO3, 8.1 μM MnCl2-4H2O). Prior to every experiment, cells were first inoculated into M9gluCAAT and grown to stationary phase at 37°C. For all assays except the biofilm experiments, the culture was diluted to 1/10,000 or more in fresh medium and grown at 37°C until it reached an optical density at 600 nm (OD) of 0.2–0.4. For the biofilm experiments, cells were grown in M9gluCAAT supplemented with 100 μg/mL ampicillin to maintain the GFP-expressing plasmid. The overnight stationary-phase cultures were then diluted into the same medium to an OD of 0.015. See below for details on biofilm growth.
Except for the biofilm experiments, the strains used in this study were derived from MG1655 (ATCC 47076), which was used to estimate the minimum inhibitory concentration (MIC) for all the studied peptides (or peptoids) using a microplate reader (Figure 1A). To detect the timing of outer and inner membrane permeabilization to proteins, strain CJW7845 was constructed to carry two freely diffusing fluorescent proteins: mScarlet-I in the periplasm and mTagBFP2 in the cytoplasm. Construction of CJW7845 was done by transforming pBAD-mTagBFP2 plasmid (Addgene #34632, a gift from Vladislav Verkhusha; ([Subach et al., 2011])) into an E. coli strain expressing a periplasmic mScarlet-I reporter ([Cañas-Duarte 2021]), as previously described ([Chung et al., 1989]). Transformants were restreaked on fresh selection plates and confirmed via microscopy.
To determine the minimal inhibitory concentration (MIC) of the selected AMPs against either MG1655 or ATCC 25922 E. coli strains, exponentially growing cells were diluted in fresh medium to an OD = 10^−6 (~500 cells/mL) and mixed 50:50 with titrated AMP concentrations (which were chosen to be over a range that included the MIC) in a 96-well plate (flat bottom with low evaporation lid, 3595, Corning, Arizona, USA). A final OD of 5 × 10^−7 corresponds to ~250 cells/mL. OD curves were sampled every 5 min for a total of 48 h using a microplate reader (BioTek Synergy 2, Agilent Technologies Inc., California, USA). Raw data were exported as a text file and analysed using a custom-written Python script (microplate_reader_analysis.py). To measure maximum growth rates, the log(OD) was fitted using a linear regression over a 12-point moving window (60 min), which provides the instantaneous growth rate (log(OD)/h), from which the global maximum was computed. The MIC was defined as the minimum AMP concentration for which the maximum growth rate was < 0.2 log(OD)/h within the first 20 h of incubation. Each MIC experiment was performed independently at least three times (with at least two technical replicates each), and the mode across all replicates was taken as the final MIC; in the rare cases of a tie, an additional replicate was performed, which was sufficient to resolve it.

Row | SMILES | Growth inhibition of dense cell population in wide trenches [1] | MIC (mode MIC) (E. coli (MG1655); MG1655, 20 h) [µM] | MIC (mode MIC) (E. coli (MG1655); E. coli MG1655, M9gluCAAT, 37°C, 20 h, inoculum ~250 cells/mL, max growth rate < 0.2 log(OD)/h, mode across three biological replicates with two technical replicates each) [µM]
1 | CC[C@@H](C)[C@@H](NC(=O)[C@@H](C)NC(=O)[C@@H](CCCNC(=N)N)NC(=O)[C@@H](Cc1c[nH]c2ccccc12)NC(=O)[C@@H](CCC(N)=O)NC(=O)[C@H](N)C(C)C)C(=O)N[C@H](CCCNC(=N)N)C(=O)N[C@@H](C(=O)N[C@H](CCCNC(=N)N)C(=O)N[C@@H](C(=O)N[C@@H](C(=O)N[C@H](CCCNC(=N)N)C(N)=O)[C@H](C)CC)C(C)C)C(C)C [DJK-5] (H-[dV][dQ][dW][dR][dA][dI][dR][dV][dR][dV][dI][dR]-NH2; N-terminus and C-terminus assumed) | able to inhibit cell growth throughout the entire wide trenches | 2.5 | 
2 | CC[C@H](C)[C@@H]1NC(=O)CNC(=O)[C@H](CCCNC(=N)N)NC(=O)[C@H](Cc2ccc(O)cc2)NC(=O)[C@@H]2CSSC[C@H](NC1=O)C(=O)N[C@@H](Cc1ccc(O)cc1)C(=O)N[C@@H](CCCNC(=N)N)C(=O)N[C@@H](CCCNC(=N)N)C(=O)N[C@H](C(=O)N[C@@H](CCCNC(=N)N)C(N)=O)CSSC[C@H](NC(=O)[C@H](Cc1c[nH]c3ccccc13)NC(=O)[C@@H](N)CCCCN)C(=O)N[C@@H](Cc1ccccc1)C(=O)N[C@@H](CCCNC(=N)N)C(=O)N[C@@H](C(C)C)C(=O)N2 [Tac1, tachyplesin-1] (H-KWCFRVCYRGICYRRCR-NH2; disulfide 3-16, 7-12 (inferred); N-terminus assumed) | primarily inhibited the growth of cells near the top of the trenches | 0.6 | 
3 | C[C@@H](c1ccccc1)N(CC(N)=O)C(=O)CN(C(=O)CN(CCCCN)C(=O)CN(C(=O)CN(C(=O)CN(CCCCN)C(=O)CN(C(=O)CN(C(=O)CN(CCCCN)C(=O)CN(C(=O)CN(C(=O)CNCCCCN)[C@@H](C)c1ccccc1)[C@@H](C)c1ccccc1)[C@@H](C)c1ccccc1)[C@@H](C)c1ccccc1)[C@@H](C)c1ccccc1)[C@@H](C)c1ccccc1)[C@@H](C)c1ccccc1 [TM1] (H-[Nlys][Nspe][Nspe][Nlys][Nspe][Nspe][Nlys][Nspe][Nspe][Nlys][Nspe][Nspe]-NH2) | localized growth inhibition |  | 2.5
